Tests used:
[1] = target: T1, 5-hydroxytryptamine receptor 1A (Homo sapiens, UniProt P08908); format: functional, cell-based
T1 sequence (P08908 whole entry): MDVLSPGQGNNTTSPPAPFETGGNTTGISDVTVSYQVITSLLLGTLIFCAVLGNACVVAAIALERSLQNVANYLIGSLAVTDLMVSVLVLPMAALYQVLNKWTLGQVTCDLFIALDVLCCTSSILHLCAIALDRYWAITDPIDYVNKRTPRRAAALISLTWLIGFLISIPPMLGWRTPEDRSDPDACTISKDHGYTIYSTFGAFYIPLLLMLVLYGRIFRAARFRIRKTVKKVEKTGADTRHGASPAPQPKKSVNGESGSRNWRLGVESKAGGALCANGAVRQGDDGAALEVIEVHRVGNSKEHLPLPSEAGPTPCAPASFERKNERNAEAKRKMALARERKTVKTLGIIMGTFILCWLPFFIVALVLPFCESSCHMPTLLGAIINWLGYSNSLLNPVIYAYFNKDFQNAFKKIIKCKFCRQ

[2] = target: Sodium-dependent dopamine transporter (Homo sapiens, UniProt Q01959)
Sodium-dependent dopamine transporter, sequence (Q01959 whole entry): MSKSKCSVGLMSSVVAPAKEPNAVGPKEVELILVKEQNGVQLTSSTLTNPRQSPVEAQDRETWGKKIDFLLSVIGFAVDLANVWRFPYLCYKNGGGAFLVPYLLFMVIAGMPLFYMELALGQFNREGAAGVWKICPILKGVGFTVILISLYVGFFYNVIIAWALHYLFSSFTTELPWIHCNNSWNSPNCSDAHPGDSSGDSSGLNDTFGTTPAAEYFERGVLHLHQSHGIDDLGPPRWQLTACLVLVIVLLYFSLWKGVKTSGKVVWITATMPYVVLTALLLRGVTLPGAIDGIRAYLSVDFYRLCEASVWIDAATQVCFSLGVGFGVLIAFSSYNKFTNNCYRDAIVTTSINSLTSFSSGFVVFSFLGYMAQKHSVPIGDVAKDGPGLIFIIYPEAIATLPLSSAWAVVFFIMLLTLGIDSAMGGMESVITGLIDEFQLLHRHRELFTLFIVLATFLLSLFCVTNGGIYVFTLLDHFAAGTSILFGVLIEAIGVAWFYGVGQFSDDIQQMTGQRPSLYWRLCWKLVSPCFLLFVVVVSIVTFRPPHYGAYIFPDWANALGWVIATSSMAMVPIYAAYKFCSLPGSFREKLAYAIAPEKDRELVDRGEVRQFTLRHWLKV

Prothrombin = Prothrombin (Homo sapiens, UniProt P00734); format: functional
[3] = target: Beta-2 adrenergic receptor (Homo sapiens, UniProt P07550); format: functional, cell-based
Beta-2 adrenergic receptor, sequence (P07550 whole entry): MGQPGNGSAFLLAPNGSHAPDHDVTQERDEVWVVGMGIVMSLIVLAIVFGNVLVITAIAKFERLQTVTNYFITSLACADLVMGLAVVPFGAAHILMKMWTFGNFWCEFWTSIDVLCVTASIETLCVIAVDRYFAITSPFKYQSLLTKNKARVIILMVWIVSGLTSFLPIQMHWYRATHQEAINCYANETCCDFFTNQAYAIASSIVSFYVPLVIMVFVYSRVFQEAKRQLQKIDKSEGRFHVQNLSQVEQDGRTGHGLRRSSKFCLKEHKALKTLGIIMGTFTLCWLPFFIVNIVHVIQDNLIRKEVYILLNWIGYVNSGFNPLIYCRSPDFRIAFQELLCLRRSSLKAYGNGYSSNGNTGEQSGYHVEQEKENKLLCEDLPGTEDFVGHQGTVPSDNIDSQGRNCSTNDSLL

Vasopressin V1a receptor = Vasopressin V1a receptor (Homo sapiens, UniProt P37288)
Vasopressin V1a receptor, sequence (P37288 whole entry): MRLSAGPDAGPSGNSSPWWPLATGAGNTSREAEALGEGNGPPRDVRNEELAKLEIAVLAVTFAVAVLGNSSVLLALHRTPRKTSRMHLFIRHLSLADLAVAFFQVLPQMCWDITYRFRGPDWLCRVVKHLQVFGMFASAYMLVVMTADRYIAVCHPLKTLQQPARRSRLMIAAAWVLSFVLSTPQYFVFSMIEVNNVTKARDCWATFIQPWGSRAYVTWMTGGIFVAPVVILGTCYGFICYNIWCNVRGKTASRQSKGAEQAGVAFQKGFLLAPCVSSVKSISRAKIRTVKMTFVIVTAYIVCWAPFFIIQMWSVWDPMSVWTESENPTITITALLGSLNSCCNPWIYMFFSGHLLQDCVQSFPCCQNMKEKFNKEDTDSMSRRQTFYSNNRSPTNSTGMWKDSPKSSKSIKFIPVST

Cannabinoid receptor 1 = Cannabinoid receptor 1 (Homo sapiens, UniProt P21554)
Cannabinoid receptor 1, sequence (P21554 whole entry): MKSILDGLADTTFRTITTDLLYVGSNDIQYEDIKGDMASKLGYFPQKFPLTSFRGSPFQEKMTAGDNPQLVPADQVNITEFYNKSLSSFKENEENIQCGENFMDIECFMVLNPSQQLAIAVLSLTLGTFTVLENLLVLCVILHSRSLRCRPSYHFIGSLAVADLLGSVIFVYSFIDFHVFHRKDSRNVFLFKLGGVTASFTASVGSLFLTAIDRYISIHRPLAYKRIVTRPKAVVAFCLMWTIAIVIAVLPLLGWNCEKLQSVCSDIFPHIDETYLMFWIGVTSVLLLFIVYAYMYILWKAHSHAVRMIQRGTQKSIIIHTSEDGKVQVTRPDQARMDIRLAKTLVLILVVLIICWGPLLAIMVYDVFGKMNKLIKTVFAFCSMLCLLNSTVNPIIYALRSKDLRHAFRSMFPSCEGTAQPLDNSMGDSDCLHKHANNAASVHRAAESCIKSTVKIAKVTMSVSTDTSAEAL

[4] = target: T2, Alpha-2A adrenergic receptor (Homo sapiens, UniProt P08913)
T2 sequence (P08913 whole entry): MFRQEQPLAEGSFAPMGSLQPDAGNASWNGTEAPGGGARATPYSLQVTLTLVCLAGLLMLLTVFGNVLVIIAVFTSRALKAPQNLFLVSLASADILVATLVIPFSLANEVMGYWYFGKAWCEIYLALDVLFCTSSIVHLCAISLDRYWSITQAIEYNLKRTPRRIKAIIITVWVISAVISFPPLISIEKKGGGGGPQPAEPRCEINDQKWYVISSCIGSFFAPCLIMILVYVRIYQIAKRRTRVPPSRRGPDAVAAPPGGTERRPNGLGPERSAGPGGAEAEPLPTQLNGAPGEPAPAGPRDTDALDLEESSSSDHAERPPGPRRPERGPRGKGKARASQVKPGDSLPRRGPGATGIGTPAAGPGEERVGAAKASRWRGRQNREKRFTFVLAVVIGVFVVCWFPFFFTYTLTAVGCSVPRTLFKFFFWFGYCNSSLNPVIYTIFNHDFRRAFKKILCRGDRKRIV

Progesterone receptor = target: T3, Progesterone receptor (Homo sapiens, UniProt P06401)
T3 sequence (P06401 whole entry): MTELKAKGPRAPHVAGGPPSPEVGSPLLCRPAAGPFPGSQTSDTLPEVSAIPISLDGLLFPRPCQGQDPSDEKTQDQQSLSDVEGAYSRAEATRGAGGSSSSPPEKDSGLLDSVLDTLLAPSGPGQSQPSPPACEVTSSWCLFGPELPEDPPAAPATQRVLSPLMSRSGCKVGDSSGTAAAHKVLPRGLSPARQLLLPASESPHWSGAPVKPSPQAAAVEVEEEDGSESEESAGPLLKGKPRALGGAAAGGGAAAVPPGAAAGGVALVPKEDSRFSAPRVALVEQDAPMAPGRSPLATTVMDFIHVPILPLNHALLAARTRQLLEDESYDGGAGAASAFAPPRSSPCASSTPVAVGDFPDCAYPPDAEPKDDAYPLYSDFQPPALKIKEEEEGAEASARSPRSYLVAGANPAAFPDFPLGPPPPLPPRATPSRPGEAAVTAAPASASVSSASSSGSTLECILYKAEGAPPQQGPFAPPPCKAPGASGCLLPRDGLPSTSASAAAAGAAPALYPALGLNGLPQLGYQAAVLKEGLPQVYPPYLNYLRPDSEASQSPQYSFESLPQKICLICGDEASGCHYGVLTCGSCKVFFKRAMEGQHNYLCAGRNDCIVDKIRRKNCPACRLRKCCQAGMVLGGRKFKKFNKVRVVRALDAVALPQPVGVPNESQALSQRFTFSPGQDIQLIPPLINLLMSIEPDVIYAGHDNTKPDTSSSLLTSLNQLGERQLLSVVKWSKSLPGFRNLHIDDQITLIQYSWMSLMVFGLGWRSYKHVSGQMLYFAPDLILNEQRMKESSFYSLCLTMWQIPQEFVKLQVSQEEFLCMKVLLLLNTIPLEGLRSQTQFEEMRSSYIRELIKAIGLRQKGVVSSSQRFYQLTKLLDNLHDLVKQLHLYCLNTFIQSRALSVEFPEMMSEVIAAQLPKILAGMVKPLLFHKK

Melanocortin receptor 3 = Melanocortin receptor 3 (Homo sapiens, UniProt P41968)
Melanocortin receptor 3, sequence (P41968 whole entry): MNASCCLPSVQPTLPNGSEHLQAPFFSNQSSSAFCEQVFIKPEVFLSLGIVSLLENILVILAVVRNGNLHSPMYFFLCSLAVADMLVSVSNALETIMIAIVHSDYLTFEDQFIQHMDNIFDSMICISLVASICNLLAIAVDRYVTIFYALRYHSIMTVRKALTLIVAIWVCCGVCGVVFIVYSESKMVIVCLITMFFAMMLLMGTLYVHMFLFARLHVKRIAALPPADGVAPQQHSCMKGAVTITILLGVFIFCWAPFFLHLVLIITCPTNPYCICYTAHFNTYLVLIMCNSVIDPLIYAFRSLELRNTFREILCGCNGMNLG

[5] = target: T4, Type-1 angiotensin II receptor (Homo sapiens, UniProt P30556)
T4 sequence (P30556 whole entry): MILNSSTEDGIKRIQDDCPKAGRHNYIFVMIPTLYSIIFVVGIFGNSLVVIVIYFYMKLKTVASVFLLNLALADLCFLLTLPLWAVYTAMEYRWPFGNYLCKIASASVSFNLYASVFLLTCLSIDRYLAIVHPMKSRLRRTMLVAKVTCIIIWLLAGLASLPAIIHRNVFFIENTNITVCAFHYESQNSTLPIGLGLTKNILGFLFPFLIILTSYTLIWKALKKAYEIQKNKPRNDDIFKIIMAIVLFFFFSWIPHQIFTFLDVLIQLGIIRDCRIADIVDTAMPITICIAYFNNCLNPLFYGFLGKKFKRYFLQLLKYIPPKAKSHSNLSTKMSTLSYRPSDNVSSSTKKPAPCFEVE

[6] = target: T5, 5-hydroxytryptamine receptor 2C (Homo sapiens, UniProt P28335)
T5 sequence (P28335 whole entry): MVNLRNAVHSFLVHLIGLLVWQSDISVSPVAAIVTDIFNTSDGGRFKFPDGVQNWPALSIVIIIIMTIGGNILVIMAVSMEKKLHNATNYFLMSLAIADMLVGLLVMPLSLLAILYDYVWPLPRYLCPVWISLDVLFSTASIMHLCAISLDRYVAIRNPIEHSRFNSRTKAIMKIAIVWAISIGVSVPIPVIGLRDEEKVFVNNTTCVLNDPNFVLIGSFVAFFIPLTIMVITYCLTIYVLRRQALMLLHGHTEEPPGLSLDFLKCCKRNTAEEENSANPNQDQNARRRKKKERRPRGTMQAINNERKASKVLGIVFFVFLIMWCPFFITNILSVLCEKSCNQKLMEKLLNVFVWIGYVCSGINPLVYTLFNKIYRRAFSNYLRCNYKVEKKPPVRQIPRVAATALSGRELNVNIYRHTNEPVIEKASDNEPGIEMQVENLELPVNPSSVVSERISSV
Further: assay procedure not described here.

| Structure (SMILES) | AC50 [1] [µM] | AC50 [2] [µM] | AC50 (Prothrombin) [µM] | AC50 [3] [µM] | AC50 (Vasopressin V1a receptor) [µM] | AC50 (Cannabinoid receptor 1) [µM] | AC50 [4] [µM] | AC50 (Progesterone receptor) [µM] | AC50 (Melanocortin receptor 3) [µM] | AC50 [5] [µM] | AC50 [6] [µM] |
| --- | --- | --- | --- | --- | --- | --- | --- | --- | --- | --- | --- |
| CC(C)Cc1ccc(C(C)C(=O)O)cc1 (stereo unspecified) [IBUPROFEN] | > 10 | > 30 | > 30 | > 30 | > 30 | > 10 | > 30 | > 30 | > 30 | > 30 | > 30 |
| C=CC[C@@H]1/C=C(\C)C[C@H](C)C[C@H](OC)[C@H]2O[C@@](O)(C(=O)C(=O)N3CCCC[C@H]3C(=O)O[C@H](/C(C)=C/[C@@H]3CC[C@@H](O)[C@H](OC)C3)[C@H](C)[C@@H](O)CC1=O)[C@H](C)C[C@@H]2OC [TACROLIMUS ANHYDROUS] | > 10 |  |  | > 30 | > 30 | > 10 |  |  | > 30 | > 30 | > 30 |
| Cc1onc(-c2ccccc2)c1-c1ccc(S(N)(=O)=O)cc1 [VALDECOXIB] | > 10 | > 30 | > 30 | > 30 | > 30 | > 10 | > 30 | > 30 | > 30 | > 30 | > 30 |
| C[C@H]1c2cccc(O)c2C(=O)C2=C(O)[C@]3(O)C(=O)C(C(N)=O)=C(O)[C@@H](N(C)C)[C@@H]3[C@@H](O)[C@@H]21 [DOXYCYCLINE] | > 10 |  |  | > 30 | > 10 | > 10 |  |  | > 30 | > 30 | > 30 |
| O=C1C(CC[S+]([O-])c2ccccc2)C(=O)N(c2ccccc2)N1c1ccccc1 (stereo unspecified) [SULFINPYRAZONE] | > 30 |  |  | > 30 | > 10 | > 10 |  |  | > 10 | > 10 | > 30 |
| COc1ccccc1Oc1c(NS(=O)(=O)c2ccc(C(C)(C)C)cc2)nc(-c2ncccn2)nc1OCCO [BOSENTAN] | > 10 |  |  | > 30 | > 30 | > 10 |  |  | > 30 | > 30 | > 30 |
| Nc1ccc(S(=O)(=O)Nc2nccs2)cc1 [SULFATHIAZOLE] | > 10 |  |  | > 30 | > 10 | > 10 |  |  | > 30 | > 30 | > 30 |
| COc1cc2nccc(Oc3ccc(NC(=O)C4(C(=O)Nc5ccc(F)cc5)CC4)cc3)c2cc1OC [CABOZANTINIB] | > 30 | > 30 | > 30 | > 30 | > 30 |  | > 30 | > 10 | > 30 | > 30 | > 30 |
| OC[C@H]1O[C@@](CO)(O[C@H]2O[C@H](CO)[C@@H](O)[C@H](O)[C@H]2O)[C@@H](O)[C@@H]1O [SUCROSE] | > 30 | > 30 | > 30 | > 30 | > 30 |  | > 30 | > 30 | > 30 | > 30 | > 30 |
| C[C@@H](Oc1cc(-c2cnn(C3CCNCC3)c2)cnc1N)c1c(Cl)ccc(F)c1Cl [CRIZOTINIB] | > 10 |  |  | > 30 | > 30 | > 10 |  |  | 19.9 | 29 | > 30 |
| O=C1CCc2cc(OCCCCc3nnnn3C3CCCCC3)ccc2N1 [CILOSTAZOL] | > 30 |  |  | > 30 |  | > 10 |  |  | > 30 | > 30 | > 30 |
| C=C[C@H]1C[N@@]2CC[C@H]1C[C@@H]2[C@@H](O)c1ccnc2ccc(OC)cc12 [QUINIDINE] | > 30 |  |  | > 30 | > 30 | > 10 |  |  | > 30 | > 30 | > 10 |
| N[C@@H](CC(=O)N1CCn2c(nnc2C(F)(F)F)C1)Cc1cc(F)c(F)cc1F [SITAGLIPTIN] | > 30 |  |  | > 30 | > 30 | > 10 |  |  | > 30 | > 30 | > 30 |
| CC(C)N(CCC(C(N)=O)(c1ccccc1)c1ccccn1)C(C)C (stereo unspecified) [DISOPYRAMIDE] | > 10 |  |  | > 30 | > 30 | > 10 |  |  | > 30 | > 30 | > 30 |
| CN(C)CCc1c[nH]c2ccc(Cn3cncn3)cc12 [RIZATRIPTAN] |  |  |  | > 30 | > 10 | > 10 |  |  | > 30 | > 30 |  |

Reference: ChEMBL document CHEMBL5291721, “A preclinical secondary pharmacology resource illuminates target-adverse drug reaction associations of marketed drugs” (Nat Commun, 2023)
